Test results from US20240368163A1, “COMPOUNDS AND METHODS FOR MODULATING SPLICING” (REMIX THERAPEUTICS INC., priority 2021, published 2024).
Like-named read-outs stand apart in the source and are kept apart here.

Tests used:
Type in all cases: cell-based, human
HTT [1] = experiment: HiBiT protein abundance assay, HTT; details: Table 13A, modified K562 cells
Procedure: (§1) Compounds described herein were used to screen for effects on quantitative protein abundance using a HiBit assay system (Promega). Quantitative protein abundance was determined by measuring the protein levels of HiBit-tagged protein targets expressed in cell culture via luminescence using the Nano-Glo HiBiT Lytic Detection System, which uses a split complementation assay format to reconstitute NanoBiT enzyme to generate a luminescent signal. A protein abundance assay was developed such that endogenous protein targets could be modified with the HiBiT peptide tag and their abundance could be assessed after compound treatment. Briefly, K562 cell lines containing a HiBiT-modification were treated with various compounds described herein (e.g., compounds of Formulas (I), (II), or (III)). After treatment for 24 hours, the protein abundance of a specific target was determined by measuring luminescence.
(§2) Cells were maintained in IMIDM with 10% FBS. Before the assay, cells were diluted with […] growth media (IMIDM+[…] media) and were seeded in a 384-well plate at a density of 10000 cells/well (for each cell line listed in Table 12). Each compound was prepared as a 10-point 3-fold serial dilution in DMSO with the top dose at a final concentration of 10 μM in the well. Unmodified K562 cells were added at the previously specified density with DMSO to serve as an assay baseline and positive control (PC) and DMSO only with the respective modified cell lines was added to the negative control (NC) columns. Final DMSO concentration was kept at or below 0.25%. Treated cell plates were placed in an incubator at 37° C. with 5% CO2 for 24 hours. After 24 hours, 25 μL of Complete HiBit Lytic reagent was added to each well at room temperature (e.g. one plate requiring 10 mL Lytic Buffer, 100 μL LgBiT Protein, 200 μL Lytic Substrate), shaken for 5 minutes at 600 RPM, then left to sit for 10 minutes for signal to stabilize before reading on a Spark Cyto plate reader (Tecan) with a 500 ms measurement time.
(§3) To determine compound effects on protein abundance of each target in Table 12, the percent response for each respective cell line was calculated at each compound concentration as follows:
(§4) For the normalized response at each concentration, a four-parameter logistical regression was fit to the data and the response was interpolated at the 50% value to determine a concentration for protein abundance at 50% (IC50) the untreated control.

SMN2 = experiment: Splicing RT-qPCR panel, SMN2 canonical junction (CJ) mRNA; details: read-out: SMN2 IC50 (decrease in CJ mRNA levels)
Procedure: (§5) Compounds described herein were used to modulate RNA transcript abundance in cells. The expression of a target mRNA was measured by detecting the formation of an exon-exon junction in the canonical transcript (CJ). A compound mediated exon-inclusion event was detected by observing an increase in formation of a new junction with an alternative exon (AJ). Real-time qPCR assays were used to detect these splicing switches and interrogate the potency of various compounds towards different target genes. A high-throughput real time quantitative PCR (RT-qPCR) assay was developed to measure these two isoforms of the mRNA (CJ and AJ) for exemplary genes, such as HTT, SMN2, and MYB, together with a control housekeeping gene, GAPDH or GUSB or PPIA, used for normalization. Briefly, the A673 or K562 cell line was treated with various compounds described herein (e.g., compounds of Formula (I)). After treatment, the levels of the HTT, MYB, or SMN2 mRNA targets were determined from each sample of cell lysate by cDNA synthesis followed by qPCR.
(§6) The A673 cell line was cultured in DMEM with 10% FBS. Cells were diluted with full growth media and plated in a 96-well plate (15,000 cells in 100 ul media per well). The plate was incubated at 37° C. with 5% CO2 for 24 hours to allow cells to adhere. An 11-point 3-fold serial dilution of the compounds was made in DMSO then diluted in media in an intermediate plate. Compounds were transferred from the intermediate plate to the cell plate with the top dose at a final concentration of 10 uM in the well. Final DMSO concentration was kept at or below 0.25%. The cell plate was returned to the incubator at 37° C. with 5% CO2 for an additional 24 hours.
(§7) The K562 cell line was cultured in IMDM with 10% FBS. For K562, cells were diluted with full growth media and plated in either a 96-well plate (50,000 cells in 50 uL media per well) or a 384-well plate (8,000-40,000 cells in 45 uL media per well). An 11-point 3-fold serial dilution of the compounds were made in DMSO then diluted in media in an intermediate plate. Compound was transferred from the intermediate plate to the cell plate with the top dose at a final concentration of 10 uM in the well. Final DMSO concentration was kept at or below 0.25%. Final volume was 100 uL for 96-well plate and 50 uL for 384-well plate. The cell plate was then placed in an incubator at 37° C. with 5% CO2 for 24 hours.
(§8) The cells were then gently washed with 50 uL-100 uL cold PBS before proceeding to addition of lysis buffer. 30 uL-50 μL of room temperature lysis buffer with DNAse I (and optionally RNAsin) was added to each well. Cells were shaken/mixed thoroughly at room temperature for 5-10 minutes for lysis to take place and then 3 uL-5 μL of room temperature stop solution was added and wells were shaken/mixed again. After 2-5 minutes, the cell lysate plate was transferred to ice for RT-qPCR reaction setup. The lysates could also be frozen at −80° C. for later use.
(§9) In some cases, a direct lysis buffer was used. An appropriate volume of 3× lysis buffer (10 mM Tris, 150 mM NaCl, 1.5%-2.5% Igepal and 0.1-1 U/uL RNAsin, pH 7.4) was directly added to either K562 or A673 cells in media and mixed by pipetting 3 times. The plates were then incubated at room temperature with shaking/rocking for 20-50 minutes to allow for lysis to take place. After this time, the cell lysate plate was transferred to ice to set up for the RT-qPCR reactions. The lysates could also be frozen at −80° C. for later use.
(§10) To set up 10 uL RT-qPCR reactions, cell lysates were transferred to 384-well qPCR plates containing the master mix according to the table below. The plates were sealed, gently vortexed, and spun down before the run. The volumes were adjusted accordingly in some instances where the reaction was carried in 20 μL. The table below summarizes the components of the RT-qPCR reactions:
(§11) The RT-qPCR reaction was performed using a QuantStudio (ThermoFisher) under the following fast cycling conditions. […]

HTT [2] = experiment: Splicing RT-qPCR assay, HTT mRNA canonical junction (CJ) and alternative junction (AJ); details: for AC50: increase in AJ mRNA
Procedure: as §5, §6, §7, §8, §9, §10, §11

MYB [3] = experiment: Splicing RT-qPCR assay, MYB mRNA canonical junction (CJ) and alternative junction (AJ); details: for AC50: increase in AJ mRNA
Procedure: as §5, §6, §7, §8, §9, §10, §11

MYB [4] = experiment: HiBiT protein abundance assay, MYB; details: Table 13A, modified K562 cells
Procedure: as §1, §2, §3, §4

Target C [5] = experiment: HiBiT protein abundance assay, Target C; details: Homo sapiens, K562, 24 h, Table 13A, modified K562 cells
Procedure: • Promega Nano-Glo HiBiT Lytic Detection System (cat #N3030) • Coming 384-well TC-treated microplates (cat #3570) • Synthego Engineered Cells Knock-In Clones
as §2, §3, §4

Target C [6] = experiment: Splicing RT-qPCR panel, Target C canonical junction (CJ) mRNA; details: read-out: Target C IC50 (decrease in CJ mRNA levels)
Procedure: as §5, §6, §7, §8, §9, §10, §11

[7] = Homo sapiens, RT-qPCR panel, canonical junction mRNA, compound concentration having 50% response in CJ decrease
[8] = Homo sapiens, 24 h, decrease in CJ mRNA, A673 or K562 cells, 24 hours treatment, RT-qPCR, read-out: HTT CJ IC50
[9] = Homo sapiens, 24 h, A673 or K562 cells, 24 hours treatment, RT-qPCR
[10] = Homo sapiens, RT-qPCR panel, canonical junction mRNA, compound concentration having 50% response in CJ decrease, read-out: HTT IC50 (decrease in CJ mRNA levels)
[11] = Homo sapiens, 24 h, decrease in CJ mRNA, A673 or K562 cells, 24 hours treatment, RT-qPCR, read-out: MYB CJ IC50
[12] = Homo sapiens, RT-qPCR panel, canonical junction mRNA, compound concentration having 50% response in CJ decrease, read-out: MYB IC50 (decrease in CJ mRNA levels)
[13] = RT-qPCR panel, canonical junction mRNA, compound concentration having 50% response in CJ decrease
[14] = Homo sapiens, gene panel, CJ qPCR, protocol of Example 142

SMILES | IC50 (HTT [1]; Homo sapiens, K562, 24 h) | IC50 (SMN2; [7]) | IC50 (HTT [2]; [8]) | AC50 (HTT [2]; [9]) | IC50 (HTT [2]; [10]) | IC50 (MYB [3]; [11]) | AC50 (MYB [3]; [9]) | IC50 (MYB [3]; [12]) | IC50 (MYB [4]; Homo sapiens, K562, 24 h) | IC50 (Target C [5]) | IC50 (Target C [6]; [7]) | further results
Cc1cc(-c2ccc(-c3ccc(O[C@H]4C[C@@H]5CC(F)(F)[C@H](C4)N5)nn3)c3[nH]ncc23)ccn1 (single isomer, unassigned) [Compound 370] | 1000 to 10000 nM | 1000 to 10000 nM | > 10000 nM | > 10000 nM | > 10000 nM | > 10000 nM | > 10000 nM | > 10000 nM | 1000 to 10000 nM | > 10000 nM | 1000 to 10000 nM | –
FC1(F)C[C@@H]2C[C@@H](Oc3ccc(-c4ccc(-c5cn[nH]c5)c5cn[nH]c45)nn3)C[C@H]1N2 (stereo in doubt) [Compound 373, 7-[6-({6,6-difluoro-8-azabicyclo[3.2.1]octan-3-yl}oxy)pyridazin-3-yl]-4-(1H-pyrazol-4-yl)-1H-indazole] | 100 to 1000 nM | 100 to 1000 nM | 100 to 1000 nM | 100 to 1000 nM | 100 to 1000 nM | 1000 to 10000 nM | 100 to 1000 nM | 1000 to 10000 nM | 1000 to 10000 nM | 1000 to 10000 nM | 1000 to 10000 nM | –
CN(c1ccc(-c2ccc(-c3cn[nH]c3)c3cn[nH]c23)nn1)[C@@H]1C[C@H]2CC(F)(F)[C@@H](C1)N2 (stereo in doubt) [Compound 376, 6,6-difluoro-N-methyl-N-{6-[4-(1H-pyrazol-4-yl)-1H-indazol-7-yl]pyridazin-3-yl}-8-azabicyclo[3.2.1]octan-3-amine] | 100 to 1000 nM | < 100 nM | – | 100 to 1000 nM | < 100 nM | 100 to 1000 nM | 100 to 1000 nM | 100 to 1000 nM | 100 to 1000 nM | 100 to 1000 nM | 100 to 1000 nM | –
c1n[nH]cc1-c1ccc(-c2ccc(O[C@@H]3C[C@H]4CC[C@@H](C3)N4)nn2)c2[nH]ncc12 [Compound 142] | < 100 nM | < 100 nM | 100 to 1000 nM | 100 to 1000 nM | 100 to 1000 nM | 100 to 1000 nM | 100 to 1000 nM | 100 to 1000 nM | < 100 nM | < 100 nM | 100 to 1000 nM | –
CN(c1ccc(-c2ccc(-c3cn[nH]c3)c3cn[nH]c23)nn1)[C@H]1C[C@]2(C)CC[C@](C)(C1)N2 [Compound 146] | < 100 nM | < 100 nM | – | < 100 nM | < 100 nM | 100 to 1000 nM | 100 to 1000 nM | 100 to 1000 nM | < 100 nM | < 100 nM | < 100 nM | –
CN(c1ccc(-c2ccc(-n3cccn3)c3nc[nH]c23)nn1)[C@@H]1C[C@H]2CC[C@@H](C1)N2 [Compound 170] | 1000 to 10000 nM | 100 to 1000 nM | 1000 to 10000 nM | 1000 to 10000 nM | 1000 to 10000 nM | 1000 to 10000 nM | 1000 to 10000 nM | 1000 to 10000 nM | 1000 to 10000 nM | > 10000 nM | > 10000 nM | –
CN(c1ccc(-c2ccc(-c3ccn(C)c(=O)c3)c3scnc23)nn1)C1CC(C)(C)NC(C)(C)C1 [Compound 174] | 100 to 1000 nM | 100 to 1000 nM | 1000 to 10000 nM | 1000 to 10000 nM | 1000 to 10000 nM | 1000 to 10000 nM | 1000 to 10000 nM | 1000 to 10000 nM | 1000 to 10000 nM | > 10000 nM | > 10000 nM | –
c1cnn(-c2ccc(-c3cnc(N4CCNC(C5CC5)C4)nn3)c3cn[nH]c23)c1 (centres unmarked) [Compound 555] | – | – | – | – | – | – | – | – | – | – | – | IC50 (HTT [1]; 24 hours): 100 to 1000 nM; IC50 (SMN2; [13]): 100 to 1000 nM; IC50 (HTT [2]; RT-qPCR panel, canonical junction mRNA, compound concentration having 50% response in CJ decrease, read-out: HTT IC50 (decrease in CJ mRNA levels)): < 100 nM; IC50 (MYB [3]; RT-qPCR panel, canonical junction mRNA, compound concentration having 50% response in CJ decrease, read-out: MYB IC50 (decrease in CJ mRNA levels)): 1000 to 10000 nM; IC50 (MYB [4]; 24 hours): 1000 to 10000 nM; IC50 (Target C [6]; [13]): 100 to 1000 nM
c1cnn(-c2ccc(-c3cnc(O[C@H]4C[C@H]5COC[C@@H](C4)N5)nn3)c3cn[nH]c23)c1 [Compound 585] | – | > 10000 nM | – | – | > 10000 nM | – | – | > 10000 nM | – | – | > 10000 nM | –
COc1nc(-c2ccc(OC3CC(C)(C)NC(C)(C)C3)nc2)ccc1-c1cnn(C)c1 [Compound 990] | – | – | – | – | – | – | – | – | – | – | – | IC50 (SMN2; [14]): 1000 to 10000 nM; IC50 (HTT [2]; Homo sapiens, gene panel, CJ qPCR, protocol of Example 142, read-out: HTT IC50 (decrease in CJ mRNA levels)): > 10000 nM; IC50 (MYB [3]; Homo sapiens, gene panel, CJ qPCR, protocol of Example 142, read-out: MYB IC50 (decrease in CJ mRNA levels)): > 10000 nM; IC50 (Target C [6]; [14]): > 10000 nM
